# Assay results: PMC6832219, “Synthesis of Novel Baicalein Amino Acid Derivatives and Biological Evaluation as Neuroprotective Agents” (Molecules, 2019)
# Columns and labels:
# [1] = test system: H9C2 cells; test: Toxicity on normal H9C2 cells (MTT assay); assay type: cell-based
# Procedure: To study cytotoxicity on normal cells, the cytotoxicity of compounds against normal H9C2 cells were tested.
# The SH-SY5Y ([…]) and H9C2 ([…]) cell lines were obtained from the Chinese Academy of Medical Sciences and Peking Union Medical College. All of the cell lines were grown in dulbecco’s modified eagle medium (DMEM) with 10% (v/v) fetal bovine serum (FBS) and 1% (v/v) penicillin/streptomycin (Thermo Technologies, New York, NY, USA), under a humidified atmosphere containing 5% CO2 at 37 °C. The baicalein derivatives were dissolved in DMSO (Sigma, St. Louis, MO, USA) and added at various concentrations to the cell culture.
# The protective effect of these compounds was evaluated on SH-SY5Y and H9C2 cell lines via the MTT method. The cells growing in the logarithmic phase were cultured in 96-well plates at a density 3 × 10^3 cells/well and incubated for 24 h. Then each well was treated with the required concentrations (50 µM concentrations, 25 µM concentrations, 12.5µM concentrations, 6.25 µM concentrations, and 3.125 µM concentrations) of baicalein derivatives, and incubated 36 h at 37 °C with 5% CO2. After that, the cells were induced by H2O2 (final concentration, […]) for 12 h. Control-differentiated cells were injected with new growth media at equal amounts. Before […] MTT solution (5 mg/mL) was added to each well, the cell culture fluid was discarded, and […] fresh cell culture fluid was added. The plate was incubated for a further 4 h at 37 °C. The cell supernatant medium was removed carefully, without disturbing the attached cells, and formazan crystals were solubilized by adding 150 μL DMSO into each well. The absorbance was measured at 490 nm with a plate reader (BIORAD 550 spectrophotometer, Bio-rad Life Science Development Ltd., Beijing, China). H2O2 was dissolved in DMEM medium. Wells without drugs were used as blanks. The EC50 values were defined as the concentrations that causes the maximum effect of 50%; IC50 values were defined as the concentration of compound which gives 50% growth inhibition, and were calculated using the GraphPad Prism 5. The proliferation rates of damaged SH-SY5Y cells were calculated in the following formula (1): [OD490 (compound) − OD490 (CoCl2)]/[OD490 (NGF) − OD490 (CoCl2)] × 100%(1) The EC50 values were using the equation −pEC50 = log Cmax − log 2 × (ΣP − 0.75 + 0.25Pmax + 0.25Pmin)(2) where Cmax is the maximum concentration, ΣP is the sum of proliferation rates, Pmax is the maximum value of the proliferation rate, and Pmin is the minimum value of the proliferation rate. Cell viability was expressed as a percentage of the control.
# The inhibition rate was calculated in the following equation: % inhibition = 1 − (Sample group OD/Control group OD) × 100%(3)
# [2] = test system: injured SH-SY5Y cells; test: Morphological detection of apoptosis using DAPI staining; assay type: cell-based; settings: 6.25, 12.5, and 25 μM, 72 h
# Procedure: To further study the mechanism of growth inhibition of compound 8 on injured SH-SY5Y cells, DAPI staining was performed. Injured SH-SY5Y cells were treated with compound 8 at […] concentrations for 72 h. […] When the concentration of the drug increased, the shape of the cells became regular.
# SH-SY5Y cells in logarithmic growth phase were seeded in 12-well plates (2.4 × 10^4 cells/well). After incubation for 24 h at 37 °C in a humidified atmosphere with 5% CO2, various concentrations of compound 8 was added to the cultures, and the plate was incubated for further 72 h. After discarding the cell culture medium, washing twice with PBS, and fixing with 4% paraformaldehyde for 10 min, 4′,6-diamidino-2-phenylindole (DAPI, 1 mg/mL, Molecular Probes/Invitrogen Life Technologies, Carlsbad, CA, USA), staining was performed for 5 min in the dark, and nuclear fragments were observed under fluorescence microscope.
# Figure 3 Morphological detection of apoptosis using 4′,6-diamidino-2-phenylindole (DAPI) staining (200×) on injured SH-SY5Y cells treated with compound 8, (a) control group, (b) injury group, (c) 6.25 μM, (d) 12.5 μM, and (e) 25 μM.
smiles,measurement,setting,value
"O=C(NC(Cc1ccccc1)C(=O)Oc1c(O)cc2oc(-c3ccccc3)cc(=O)c2c1O)OCc1ccccc1 (stereo not shown) [Compound 8, 5,7-dihydroxy-4-oxo-2-phenyl-4H-chromen-6-yl 2-{[(benzyloxy)carbonyl]amino}-3-phenyl-proppanpate]",viability at 6.25 µM,"[1]; 6.25 µM, H9C2 cells, MTT, read-out: Survival Rate (%)",195%
same,viability at 12.5 µM,"[1]; 12.5 µM, H9C2 cells, MTT, read-out: Survival Rate (%)",182%
same,viability at 25 µM,"[1]; 25 µM, H9C2 cells, MTT, read-out: Survival Rate (%)",169%
same,viability at 50 µM,"[1]; 50 µM, H9C2 cells, MTT, read-out: Survival Rate (%)",168%
same,Toxicity against H9C2 cells (in words),[1]; normal H9C2 cells,lower toxicity on the H9C2 cell line
same,IC50,"[1]; normal H9C2 cells, MTT",> 100 µM
same,Nuclear morphology / apoptosis (DAPI staining),[2],protects injured SH-SY5Y cells from apoptosis
